Experimental data: patent US20260042762A1 (Kymera Therapeutics, Inc., priority 2018, published 2026)

Legend:
MerTK [1] = biological target: T1, MerTK (Homo sapiens, UniProt Q12866); assay: MerTk degradation in Jurkat cells (Western blot); format: cell-based; conditions: Jurkat, 4 h, 0.001-1 μM, 4 hour-incubation at 37° C., read-out: Jurkat Max % MerTK Degradation
T1 construct: endogenous in cells; host or cells: Jurkat cells
T1 sequence (Q12866 21-999): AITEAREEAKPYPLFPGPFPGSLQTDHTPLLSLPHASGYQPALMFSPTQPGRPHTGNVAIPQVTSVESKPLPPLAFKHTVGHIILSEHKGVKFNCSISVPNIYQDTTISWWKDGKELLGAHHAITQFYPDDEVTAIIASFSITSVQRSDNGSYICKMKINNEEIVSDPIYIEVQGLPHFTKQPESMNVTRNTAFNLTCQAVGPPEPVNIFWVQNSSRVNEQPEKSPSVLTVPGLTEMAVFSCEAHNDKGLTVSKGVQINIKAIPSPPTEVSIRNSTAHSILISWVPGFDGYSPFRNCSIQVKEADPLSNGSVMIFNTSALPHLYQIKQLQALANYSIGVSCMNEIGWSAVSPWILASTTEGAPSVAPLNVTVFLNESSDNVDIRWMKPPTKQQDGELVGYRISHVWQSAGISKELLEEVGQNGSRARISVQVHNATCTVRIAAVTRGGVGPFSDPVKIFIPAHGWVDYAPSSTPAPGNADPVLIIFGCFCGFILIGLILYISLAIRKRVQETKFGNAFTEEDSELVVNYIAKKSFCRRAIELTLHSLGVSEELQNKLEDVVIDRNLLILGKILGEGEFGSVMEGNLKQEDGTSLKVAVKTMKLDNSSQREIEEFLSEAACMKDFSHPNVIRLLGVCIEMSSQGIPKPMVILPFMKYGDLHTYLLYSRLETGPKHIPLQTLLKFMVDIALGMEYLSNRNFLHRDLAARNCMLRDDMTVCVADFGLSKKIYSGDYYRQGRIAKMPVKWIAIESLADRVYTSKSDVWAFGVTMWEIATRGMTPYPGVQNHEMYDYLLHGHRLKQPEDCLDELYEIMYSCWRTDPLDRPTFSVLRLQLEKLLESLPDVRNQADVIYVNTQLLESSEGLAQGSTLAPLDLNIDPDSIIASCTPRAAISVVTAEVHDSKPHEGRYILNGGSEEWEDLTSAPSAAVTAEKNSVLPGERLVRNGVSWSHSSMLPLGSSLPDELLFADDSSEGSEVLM
How it was run: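 MerTK degradation was read by near-infrared Western blot, normalized to actin, in BCA-quantified lysates of Jurkat cells exposed to 0.001-1 μM compound for 4 h at 37 °C.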

MerTK [2] = biological target: T2, MerTK (Mus musculus, UniProt Q60805); assay: MerTK degradation in RAW264 cells (Western blot); format: cell-based; conditions: RAW264.7, 0.001-1 μM, 4 hour-incubation at 37° C., read-out: RAW264 Max % MerTK Degradation
T2 construct: endogenous in cells; host or cells: RAW264 cells
T2 sequence (Q60805 19-994): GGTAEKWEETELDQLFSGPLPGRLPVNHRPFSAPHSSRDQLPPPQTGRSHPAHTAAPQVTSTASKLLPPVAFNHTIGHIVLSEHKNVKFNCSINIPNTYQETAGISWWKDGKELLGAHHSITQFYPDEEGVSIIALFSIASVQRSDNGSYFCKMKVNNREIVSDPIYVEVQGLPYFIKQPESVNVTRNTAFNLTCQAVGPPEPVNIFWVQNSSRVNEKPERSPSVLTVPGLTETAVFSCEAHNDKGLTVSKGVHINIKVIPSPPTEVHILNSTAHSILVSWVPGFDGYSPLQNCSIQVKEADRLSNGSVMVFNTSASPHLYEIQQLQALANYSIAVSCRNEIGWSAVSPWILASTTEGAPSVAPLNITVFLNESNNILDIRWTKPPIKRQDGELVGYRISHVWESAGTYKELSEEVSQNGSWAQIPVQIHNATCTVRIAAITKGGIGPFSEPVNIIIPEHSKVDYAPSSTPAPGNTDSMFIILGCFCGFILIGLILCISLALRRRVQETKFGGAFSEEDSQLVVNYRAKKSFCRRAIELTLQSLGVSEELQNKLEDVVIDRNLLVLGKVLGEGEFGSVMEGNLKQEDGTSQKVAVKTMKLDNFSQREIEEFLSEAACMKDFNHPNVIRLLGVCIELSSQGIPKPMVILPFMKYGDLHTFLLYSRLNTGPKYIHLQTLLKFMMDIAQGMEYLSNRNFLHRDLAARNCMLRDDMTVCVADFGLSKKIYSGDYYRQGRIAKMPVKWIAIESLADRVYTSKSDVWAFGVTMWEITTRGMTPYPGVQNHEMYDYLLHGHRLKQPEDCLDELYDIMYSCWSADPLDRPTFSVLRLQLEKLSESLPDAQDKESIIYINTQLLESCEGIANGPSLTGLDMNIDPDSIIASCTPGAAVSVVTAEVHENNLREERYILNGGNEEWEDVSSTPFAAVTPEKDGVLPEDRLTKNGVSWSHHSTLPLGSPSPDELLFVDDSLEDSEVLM
Procedure: Compounds were reconstituted in DMSO to make 10 mM stock solutions. RAW264 cells were maintained in DMEM medium containing 10% FBS. Cells were seeded into 6-well plates with 2×10^6 cells per well. 2 μL of diluted compounds were added to cells to the final concentration of 0.001-1 μM. After a 4 hour-incubation at 37° C., cells were washed with DPBS (1×) once. Then RIPA lysis buffer with Halt Protease and Phosphatase Inhibitor Cocktail was added directly to the cells and cells were then incubated on ice for 10 min, then lysate was harvested into 1.5 mL Eppendorf tubes and centrifuged at 14,000 rpm for 10 min at 4° C. and the supernatants were collected for Western blots.
The protein concentration of cell lysates was quantified with Pierce™ BCA Protein Assay Kit. […] BCA working reagents were prepared by mixing BCA reagent A with reagent B in 50: 1 ratio. 200 μL of the BCA working reagents were added to 25 μL of BCA standard or cell lysates in microplate, and mixed thoroughly on a plate shaker for 30 seconds. After incubation at 37° C. for 30 min, the absorbance of samples at 562 nm were measured with EnVision Plate Reader.
Protein lysates were prepared in NuPAGE™ LDS sample buffer and NuPAGE™ sample reducing agent, and incubated at 95° C. for 5 min. […] The proteins were transferred to low fluorescence PVDF membranes using the Trans-Blot Turbo Transfer System. Membranes were then blocked in Odyssey blocking buffer at RT for 1 h followed by primary incubation at 4° C. overnight. The primary antibodies were MerTK goat polyclonal antibody and actin mouse monoclonal antibody. Membranes were washed three times with TBST (1×), and then incubated with IR Dye 800 CW Donkey anti-goat and IR Dye 700 CW Goat anti-mouse secondary antibodies in 1:10,000 dilution at RT for 1 h. The Western blot images were obtained using Odyssey Imaging System.

| Dmax (MerTK [1]) [%] | Dmax (MerTK [2]) [%] | Structure (SMILES) |
| --- | --- | --- |
| > 50 | > 50 | CCCCNc1ncc2c(-c3ccc(CN4CCN(CCOCCOCCOCCOCCCc5ccc6c(c5)n(C)c(=O)n6C5CCC(=O)NC5=O)CC4)cc3)nn([C@H]3CC[C@H](O)CC3)c2n1 (stereo partly drawn) [I-38, trans-3-(5-[1-[4-([4-[6-(butylamino)-1-[4-hydroxycyclohexyl]-1H-pyrazolo[3,4-d]pyrimidin-3-yl]phenyl]methyl)piperazin-1-yl]-3,6,9,12-tetraoxapentadecan-15-yl]-3-methyl-2-oxo-2,3-dihydro-1H-1,3-benzodiazol-1-yl)piperidine-2,6-dione] |
| > 50 | > 50 | CCCCNc1ncc2c(-c3ccc(CN4CCN(CCOCCOCCOCCCc5ccc6c(c5)n(C)c(=O)n6C5CCC(=O)NC5=O)CC4)cc3)cn([C@H]3CC[C@H](O)CC3)c2n1 (stereo partly drawn) [I-40, 3-(5-[3-[2-(2-[2-[4-([4-[2-(Butylamino)-7-[trans-4-hydroxycyclohexyl]-7H-pyrrolo[2,3-d]pyrimidin-5-yl]phenyl]methyl)piperazin-1-yl]ethoxy]ethoxy)ethoxy]propyl]-3-methyl-2-oxo-2,3-dihydro-1H-1,3-benzodiazol-1-yl)piperidine-2,6-dione formic acid] |
